Measurements: US8404728B2 (priority 2009, dated 2013)
Counter-ions that a name gives are not always drawn. Like-named read-outs stand apart in the source and are kept apart here.

Legend:
BoNTAe = BoNTAe (Clostridium botulinum, UniProt P0DPI0); test: biochemical; conditions: for inhibition at 1 µM: read-out: % inhibition of BoNTAe; for inhibition at 20 µM: inhibitor concentration 20 μM
[1] = molecular target: botulinum neurotoxin serotype A (Clostridium botulinum, UniProt P0DPI0); design: species or system Balb/c mice; conditions: mouse, in vivo, ip
Sequence of botulinum neurotoxin serotype A (P0DPI0 whole entry, looked up): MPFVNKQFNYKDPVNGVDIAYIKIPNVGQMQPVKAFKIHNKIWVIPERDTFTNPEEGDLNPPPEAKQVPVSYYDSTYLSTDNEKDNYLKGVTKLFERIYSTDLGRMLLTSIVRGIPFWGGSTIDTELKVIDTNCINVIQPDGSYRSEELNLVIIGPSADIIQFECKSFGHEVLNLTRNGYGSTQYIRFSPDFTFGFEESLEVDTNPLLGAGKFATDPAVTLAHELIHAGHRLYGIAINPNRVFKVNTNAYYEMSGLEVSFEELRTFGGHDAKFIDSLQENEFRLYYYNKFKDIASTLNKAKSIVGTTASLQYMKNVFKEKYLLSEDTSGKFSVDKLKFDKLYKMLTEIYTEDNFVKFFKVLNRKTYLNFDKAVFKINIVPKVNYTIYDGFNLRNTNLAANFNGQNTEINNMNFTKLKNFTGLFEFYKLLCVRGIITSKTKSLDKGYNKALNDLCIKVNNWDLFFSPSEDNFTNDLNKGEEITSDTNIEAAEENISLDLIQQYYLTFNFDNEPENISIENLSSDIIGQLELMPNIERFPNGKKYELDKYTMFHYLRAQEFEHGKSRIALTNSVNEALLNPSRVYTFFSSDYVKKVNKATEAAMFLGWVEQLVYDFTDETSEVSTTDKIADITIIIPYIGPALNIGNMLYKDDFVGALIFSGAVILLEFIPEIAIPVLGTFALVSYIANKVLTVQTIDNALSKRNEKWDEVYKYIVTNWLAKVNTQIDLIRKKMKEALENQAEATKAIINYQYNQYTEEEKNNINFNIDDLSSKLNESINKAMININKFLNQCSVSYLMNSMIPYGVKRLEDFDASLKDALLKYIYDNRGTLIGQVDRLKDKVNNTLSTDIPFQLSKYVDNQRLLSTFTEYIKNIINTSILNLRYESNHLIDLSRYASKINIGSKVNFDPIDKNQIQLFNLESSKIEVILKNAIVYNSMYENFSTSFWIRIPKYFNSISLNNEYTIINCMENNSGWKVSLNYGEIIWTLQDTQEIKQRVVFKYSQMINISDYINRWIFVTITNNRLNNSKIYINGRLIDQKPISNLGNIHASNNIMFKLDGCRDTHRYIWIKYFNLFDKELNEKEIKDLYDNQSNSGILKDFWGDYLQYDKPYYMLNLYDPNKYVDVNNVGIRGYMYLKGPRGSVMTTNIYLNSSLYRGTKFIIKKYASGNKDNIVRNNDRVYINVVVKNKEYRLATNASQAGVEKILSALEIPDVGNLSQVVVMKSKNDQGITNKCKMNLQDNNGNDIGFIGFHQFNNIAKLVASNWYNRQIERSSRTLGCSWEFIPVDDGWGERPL

[2] = mouse, in vivo, ip, 2 mg/kg; for AUClast / Cmax / Vd: Balb/c
in vivo = conditions: Balb/c, mouse, ip, 2 mg/kg

Sequence of BoNTAe (P0DPI0 2-448 limits assumed): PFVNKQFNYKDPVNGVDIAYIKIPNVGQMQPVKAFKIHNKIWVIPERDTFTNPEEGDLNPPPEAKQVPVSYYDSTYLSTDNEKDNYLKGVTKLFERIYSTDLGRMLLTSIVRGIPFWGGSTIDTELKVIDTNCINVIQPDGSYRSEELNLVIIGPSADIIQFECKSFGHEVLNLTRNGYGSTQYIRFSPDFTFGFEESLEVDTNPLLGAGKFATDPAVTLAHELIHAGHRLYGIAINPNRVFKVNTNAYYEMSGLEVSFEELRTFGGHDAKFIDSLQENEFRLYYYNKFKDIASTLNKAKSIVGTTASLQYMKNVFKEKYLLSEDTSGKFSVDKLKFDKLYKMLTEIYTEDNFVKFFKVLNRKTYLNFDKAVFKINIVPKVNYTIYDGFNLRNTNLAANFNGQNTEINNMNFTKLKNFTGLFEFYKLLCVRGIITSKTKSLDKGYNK

SMILES	Ki (BoNTAe) [nM]	inhibition at 1 µM (BoNTAe; inhibitor concentration 1 μM) [%]	inhibition at 1 µM (BoNTAe) [%]	other results
NCCCCCCCCCCN(CCCCCCCCCCN)C(=O)c1ccc(-c2cc3ccc(C(=O)c4cc(CC(=O)NO)c(-c5cccc(O)c5)s4)cc3n2CCCCN)cc1 [Inhibitor E1c, 4-(1-(4-aminobutyl)-6-(4-(2-(hydroxyamino)-2-oxoethyl)-5-(3-hydroxyphenyl)thiophene-2-carbonyl)-1H-indol-2-yl)-N,N-bis(10-aminodecyl)benzamide]	260	75 ± 1	–	–
O=C(CCc1cc(C(=O)Nc2cc(CCCCCCN3C(=O)c4ccccc4C3=O)c(OCCCCCCN3C(=O)c4ccccc4C3=O)c(CCCCCCN3C(=O)c4ccccc4C3=O)c2)n(Cc2ccccc2)c1C#CC(O)(c1ccccc1)c1ccccc1)NO [Inhibitor E6, 1-Benzyl-N-(3,5-bis(6-(1,3-dioxoisoindolin-2-yl)hexyl)-4-(6-(1,3-dioxoisoindolin-2-yl)hexyloxy)phenyl)-5-(3-hydroxy-3,3-diphenylprop-1-ynyl)-4-(3-(hydroxyamino)-3-oxopropyl)-1H-pyrrole-2-carboxamide trifluoroacetic acid salt]	–	50 ± 2	–	–
NCCCCCCCCCCCCN(CCCCCCCCCCCCN)C(=O)c1ccc(-c2cc3ccc(C(=O)c4cc(CC(=O)NO)c(-c5cccc(O)c5)s4)cc3n2CCCCN)cc1 [Inhibitor E1e]	360	–	49	–
NCCCCCCCCCOc1c(CCCCCCN)cc(NC(=O)c2cc(CCC(=O)NO)c(CCC(N)(c3ccccc3)c3ccccc3)n2Cc2ccccc2)cc1CCCCCCN [Inhibitor E6c]	–	–	55 ± 2	–
NCCCCCCCCN(CCCCCCCCN)C(=O)c1ccc(-c2cc3ccc(C(=NO)c4cc(CC(=O)NO)c(-c5cccc(O)c5)s4)cc3n2CCCCN)cc1 [Inhibitor E1h]	–	–	60 ± 1	–
NCCCCCCCN(CCCCCCCN)C(=O)c1cc(CCC(=O)NO)c(CCC(CO)(c2ccccc2)c2ccccc2)n1Cc1ccccc1 [Inhibitor E4b, N,N-Bis(7-aminoheptyl)-1-benzyl-5-(4-hydroxy-3,3-diphenylbutyl)-4-(3-(hydroxyamino)-3-oxopropyl)-1H-pyrrole-2-carboxamide]	210	79 ± 1	–	–
O=C(CCc1cc(C(=O)Nc2cc(CCCCCCN3C(=O)c4ccccc4C3=O)c(OCCCCCCCN3C(=O)c4ccccc4C3=O)c(CCCCCCN3C(=O)c4ccccc4C3=O)c2)n(Cc2ccccc2)c1C#CC(O)(c1ccccc1)c1ccccc1)NO [Inhibitor E6b, 1-Benzyl-N-(3,5-bis(6-(1,3-dioxoisoindolin-2-yl)hexyl)-4-(7-(1,3-dioxoisoindolin-2-yl)heptyloxy)phenyl)-5-(3-hydroxy-3,3-diphenylprop-1-ynyl)-4-(3-(hydroxyamino)-3-oxopropyl)-1H-pyrrole-2-carboxamide trifluoroacetic acid salt]	–	59 ± 2	–	–
NCCCCCCCN(CCCCCCCN)C(=O)c1cc(CCC(=O)NO)c(CCC(O)(c2ccccc2)c2ccccc2)n1Cc1ccccc1 [Inhibitor E4]	760	52 ± 1	–	–
NCCCCCCCCCCCN(CCCCCCCCCCCN)C(=O)c1ccc(-c2cc3ccc(C(=O)c4cc(CC(=O)NO)c(-c5cccc(O)c5)s4)cc3n2CCCCN)cc1 [Inhibitor E1d]	340	–	68 ± 1	–
NCCCCCN(CCCCCN)C(=O)c1ccc(-c2cc3ccc(C(=NO)c4cc(CC(=O)NO)c(-c5cccc(O)c5)s4)cc3n2CCCCN)cc1 [Inhibitor E1g]	–	–	48	–
NCCCCCCN(CCCCCCN)C(=O)c1ccc(-c2cc3ccc(C(=NO)c4cc(CC(=O)NO)c(-c5cccc(O)c5)s4)cc3n2CCCCN)cc1 [Inhibitor E1f, 4-(1-(4-aminobutyl)-6-((4-(2-(hydroxyamino)-2-oxoethyl)-5-(3-hydroxyphenyl)thiophen-2-yl)(hydroxyimino)methyl)-1H-indol-2-yl)-N,N-bis(6-aminohexyl)benzamide]	–	47 ± 1	–	–
NCCCCn1c(-c2ccccc2)c(F)c2ccc(C(=O)c3cc(CC(=O)NO)c(-c4cccc(N)c4)s3)cc21 [Inhibitor E3, 2-(5-(1-(4-aminobutyl)-3-fluoro-2-phenyl-1H-indole-6-carbonyl)-2-(3-aminophenyl)thiophen-3-yl)-N-hydroxyacetamide]	–	–	–	inhibition at 20 µM (BoNTAe): 47 ± 1%; proportion of survivors [1]: significantly (p<0.05) increased the proportion of survivors; AUClast [2]: 1385.93 ng·h/mL; Cmax [2]: 255.99 ng/mL; Vd [2]: 12.84 L/kg; T1/2 [2]: 6.25; Tmax (in vivo): 60 min
NCCCCn1c(-c2ccccc2)c(F)c2ccc(C(=O)c3cc(CC(=O)NO)c(-c4ccc(O)cc4)s3)cc21 [Inhibitor E2, 2-(5-(1-(4-Aminobutyl)-3-fluoro-2-phenyl-1H-indole-6-carbonyl)-2-(4-hydroxyphenyl)thiophen-3-yl)-N-hydroxyacetamide]	–	–	–	inhibition at 20 µM (BoNTAe): 82 ± 6%; proportion of survivors [1]: significantly (p<0.05) increased the proportion of survivors; AUClast [2]: 1386.4 ng·h/mL; Cmax [2]: 738.4 ng/mL; Vd [2]: 14.95 L/kg; T1/2 [2]: 6.5; Tmax (in vivo): 30 min
